Data: ChEMBL document CHEMBL5331057, “A decade of approved first-in-class small molecule orphan drugs: Achievements, challenges and perspectives” (Eur J Med Chem, 2022)
≈ marks a conversion by molar mass, not a printed value.

Columns and labels:
Methionine synthase = Methionine synthase (Homo sapiens, UniProt Q99707); assay: Inhibition of MTR (unknown origin)
HepG2 = assay: cells; settings: Homo sapiens, HepG2, read-out: ED50
[1] = molecular target: Cystic fibrosis transmembrane conductance regulator (Homo sapiens, UniProt P13569, F508DEL)
Sequence of Cystic fibrosis transmembrane conductance regulator (P13569 as listed by the source): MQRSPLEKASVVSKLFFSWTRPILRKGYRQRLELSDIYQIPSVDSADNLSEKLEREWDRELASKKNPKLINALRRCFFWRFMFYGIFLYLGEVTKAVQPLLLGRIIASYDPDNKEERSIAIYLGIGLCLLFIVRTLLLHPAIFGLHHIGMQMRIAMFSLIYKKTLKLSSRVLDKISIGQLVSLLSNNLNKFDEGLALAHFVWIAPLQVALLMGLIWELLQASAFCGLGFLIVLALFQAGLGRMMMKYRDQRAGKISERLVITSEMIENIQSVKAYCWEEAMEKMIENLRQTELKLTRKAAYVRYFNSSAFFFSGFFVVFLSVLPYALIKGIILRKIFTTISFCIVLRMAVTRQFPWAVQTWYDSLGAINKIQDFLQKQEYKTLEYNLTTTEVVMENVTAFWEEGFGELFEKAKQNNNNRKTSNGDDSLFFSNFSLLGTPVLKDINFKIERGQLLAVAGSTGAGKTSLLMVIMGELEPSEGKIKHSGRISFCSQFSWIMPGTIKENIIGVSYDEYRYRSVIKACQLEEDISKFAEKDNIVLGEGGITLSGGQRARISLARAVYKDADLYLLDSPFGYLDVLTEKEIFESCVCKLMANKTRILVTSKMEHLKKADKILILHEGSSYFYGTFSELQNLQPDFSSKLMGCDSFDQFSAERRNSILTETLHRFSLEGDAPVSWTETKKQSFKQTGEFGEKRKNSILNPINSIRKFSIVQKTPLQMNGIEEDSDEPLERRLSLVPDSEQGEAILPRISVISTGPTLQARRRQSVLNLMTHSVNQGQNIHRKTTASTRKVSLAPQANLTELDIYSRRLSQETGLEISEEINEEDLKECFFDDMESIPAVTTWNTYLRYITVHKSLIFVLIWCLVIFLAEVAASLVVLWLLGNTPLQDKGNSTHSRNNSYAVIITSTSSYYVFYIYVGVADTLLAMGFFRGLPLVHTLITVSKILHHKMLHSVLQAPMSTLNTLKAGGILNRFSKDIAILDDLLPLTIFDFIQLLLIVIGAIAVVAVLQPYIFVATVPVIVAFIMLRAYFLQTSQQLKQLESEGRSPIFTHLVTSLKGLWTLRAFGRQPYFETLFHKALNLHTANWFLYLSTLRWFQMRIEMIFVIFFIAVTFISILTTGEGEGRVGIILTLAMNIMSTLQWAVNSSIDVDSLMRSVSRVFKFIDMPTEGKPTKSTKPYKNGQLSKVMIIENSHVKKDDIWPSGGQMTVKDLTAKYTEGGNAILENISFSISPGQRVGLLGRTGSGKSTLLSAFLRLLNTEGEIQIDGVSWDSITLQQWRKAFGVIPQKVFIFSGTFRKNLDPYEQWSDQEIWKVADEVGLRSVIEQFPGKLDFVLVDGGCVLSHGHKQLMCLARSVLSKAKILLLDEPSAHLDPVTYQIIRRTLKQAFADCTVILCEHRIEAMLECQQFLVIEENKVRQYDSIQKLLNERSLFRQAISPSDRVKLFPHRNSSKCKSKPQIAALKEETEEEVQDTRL

Exportin-1 [2] = molecular target: T1, Exportin-1 (Homo sapiens, UniProt O14980); assay: Inhibition of XPO1 in human HPBALL cells; format: cell-based
T1 sequence (O14980 whole entry): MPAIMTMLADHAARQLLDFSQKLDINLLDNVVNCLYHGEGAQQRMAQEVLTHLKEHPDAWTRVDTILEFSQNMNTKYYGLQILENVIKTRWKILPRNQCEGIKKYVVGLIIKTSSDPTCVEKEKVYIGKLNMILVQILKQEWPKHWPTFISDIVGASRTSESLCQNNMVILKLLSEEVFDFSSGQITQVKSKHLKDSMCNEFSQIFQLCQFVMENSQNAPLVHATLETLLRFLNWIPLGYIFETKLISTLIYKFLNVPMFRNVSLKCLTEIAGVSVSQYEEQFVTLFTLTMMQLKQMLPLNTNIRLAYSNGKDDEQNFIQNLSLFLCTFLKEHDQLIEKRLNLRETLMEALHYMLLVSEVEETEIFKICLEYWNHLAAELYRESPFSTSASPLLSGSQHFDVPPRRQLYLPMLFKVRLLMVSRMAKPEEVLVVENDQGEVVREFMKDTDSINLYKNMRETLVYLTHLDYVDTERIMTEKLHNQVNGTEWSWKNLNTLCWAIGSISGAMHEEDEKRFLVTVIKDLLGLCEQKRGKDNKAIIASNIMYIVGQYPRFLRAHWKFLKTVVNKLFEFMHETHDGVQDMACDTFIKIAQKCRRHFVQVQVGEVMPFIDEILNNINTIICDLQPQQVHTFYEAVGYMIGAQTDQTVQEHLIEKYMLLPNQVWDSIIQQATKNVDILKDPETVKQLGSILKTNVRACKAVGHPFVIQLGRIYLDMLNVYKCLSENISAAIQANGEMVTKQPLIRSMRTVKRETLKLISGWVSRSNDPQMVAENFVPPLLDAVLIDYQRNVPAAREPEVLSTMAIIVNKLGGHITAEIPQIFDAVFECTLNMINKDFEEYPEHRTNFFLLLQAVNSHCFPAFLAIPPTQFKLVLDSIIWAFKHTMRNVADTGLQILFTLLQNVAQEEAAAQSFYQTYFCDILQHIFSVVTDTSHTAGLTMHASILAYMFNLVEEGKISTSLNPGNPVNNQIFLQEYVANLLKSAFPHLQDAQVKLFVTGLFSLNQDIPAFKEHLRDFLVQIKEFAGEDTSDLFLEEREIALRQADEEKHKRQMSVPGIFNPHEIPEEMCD

Exportin-1 [3] = molecular target: T1, Exportin-1; assay: Inhibition of XPO1 in human MOLT-16 cells; format: cell-based
RS4-11 = assay: Antiproliferative activity against human RS4-11 cells assessed as […]; format: functional, cell-based
[4] = molecular target: Hepatocyte growth factor receptor (Homo sapiens, UniProt P08581); assay: Inhibition of c-Met (unknown origin)
HCT-116 = assay: Antiproliferative activity against human HCT-116 cells assessed as inhibition of cell growth; format: functional, cell-based
[5] = molecular target: Isocitrate dehydrogenase [NADP], mitochondrial (Homo sapiens, UniProt P48735); assay: Inhibition of IDH2 (unknown origin)
Sequence of Isocitrate dehydrogenase [NADP], mitochondrial (P48735 whole entry): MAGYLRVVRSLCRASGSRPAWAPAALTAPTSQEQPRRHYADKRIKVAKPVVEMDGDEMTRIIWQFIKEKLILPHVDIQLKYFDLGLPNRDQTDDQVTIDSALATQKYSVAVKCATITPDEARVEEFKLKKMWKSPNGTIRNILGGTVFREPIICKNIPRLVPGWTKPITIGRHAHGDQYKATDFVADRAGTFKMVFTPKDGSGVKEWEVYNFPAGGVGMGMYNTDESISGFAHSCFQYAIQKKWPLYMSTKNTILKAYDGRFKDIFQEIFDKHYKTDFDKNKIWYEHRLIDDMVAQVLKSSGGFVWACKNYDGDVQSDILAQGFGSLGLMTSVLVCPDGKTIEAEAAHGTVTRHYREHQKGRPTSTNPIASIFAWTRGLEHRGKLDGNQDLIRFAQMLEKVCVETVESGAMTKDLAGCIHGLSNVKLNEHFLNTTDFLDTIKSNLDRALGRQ

GTPase KRas [6] = molecular target: T2, GTPase KRas (Homo sapiens, UniProt P01116); assay: Inhibition of K-Ras (unknown origin)
T2 sequence (P01116 whole entry): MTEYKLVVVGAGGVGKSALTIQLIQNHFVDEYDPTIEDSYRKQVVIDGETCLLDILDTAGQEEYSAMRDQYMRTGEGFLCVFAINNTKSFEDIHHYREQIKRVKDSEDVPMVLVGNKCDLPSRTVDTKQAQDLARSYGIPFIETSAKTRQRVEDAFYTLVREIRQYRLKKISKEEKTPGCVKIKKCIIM

[7] = Inhibition of wild type FTase (unknown origin); set-up: species or system Homo sapiens
GTPase HRas = GTPase HRas (Homo sapiens, UniProt P01112); assay: Inhibition of H-Ras (unknown origin)
Sequence of GTPase HRas (P01112 whole entry): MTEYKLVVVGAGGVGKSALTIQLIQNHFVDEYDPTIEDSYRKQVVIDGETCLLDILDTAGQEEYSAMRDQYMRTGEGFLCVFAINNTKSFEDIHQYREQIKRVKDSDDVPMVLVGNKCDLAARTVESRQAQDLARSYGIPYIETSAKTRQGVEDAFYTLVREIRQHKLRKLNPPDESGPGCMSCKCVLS

[8] = tested on: Mycobacterium tuberculosis; assay: microbe, parasite or virus in culture
[9] = tested on: Mycobacterium tuberculosis; assay: microbe, parasite or virus in culture; remark: listed apart in the source
Brain = assay: Neuroprotective activity in Wistar rat brain homogenate assessed as inhibition of lipid peroxidation incubated for 10 mins by fluorometric analysis; format: functional, tissue-based
[10] = Cytotoxicity against human HBE cells assessed as inhibition of cell growth; format: toxicity, cell-based
Human betaherpesvirus 5 = assay: Antiviral activity against HCMV infected in human NHDF cells assessed as reduction in virus plaque formation; format: functional, organism-based; settings: Human betaherpesvirus 5, NHDF
GTPase KRas [11] = molecular target: T2, GTPase KRas; assay: Inhibition of K-Ras in human NCI-H460 cells; format: cell-based
SW-620 = assay: cells; settings: Homo sapiens
K562 = assay: Antiproliferative activity against human K562 cells assessed as inhibition of cell growth; format: functional, cell-based
cells = settings: Homo sapiens, HAC15, 72 h
[12] = molecular target: Soluble guanylate cyclase (Homo sapiens) (UniProt Q02153+O75343+P33402+Q02108); assay: Stimulation of recombinant sGC (unknown origin) expressed in CHO cells assessed as formation of cGMP; format: cell-based; settings: filed as activator
Aorta = assay: Relaxation of pre-contracted rabbit aorta; format: functional, tissue-based; settings: Oryctolagus cuniculus
Malme-3M = assay: Antiproliferative activity against human Malme-3M cells assessed as inhibition of cell growth; format: functional, cell-based
Melanocortin receptor 4 = Melanocortin receptor 4 (Rattus norvegicus, UniProt P70596); assay: Inhibition of rat MC4R
Sequence of Melanocortin receptor 4 (P70596 whole entry): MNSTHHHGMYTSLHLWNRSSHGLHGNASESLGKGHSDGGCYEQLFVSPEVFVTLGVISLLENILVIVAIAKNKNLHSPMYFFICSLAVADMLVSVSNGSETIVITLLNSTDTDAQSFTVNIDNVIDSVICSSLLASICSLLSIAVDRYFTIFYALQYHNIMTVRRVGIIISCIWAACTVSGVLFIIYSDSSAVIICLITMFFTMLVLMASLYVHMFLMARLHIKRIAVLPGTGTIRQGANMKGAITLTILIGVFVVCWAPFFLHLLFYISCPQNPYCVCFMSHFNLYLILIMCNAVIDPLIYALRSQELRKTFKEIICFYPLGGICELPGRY

RBL-2H3 = assay: Antiproliferative activity against rat RBL-2H3 cells assessed as […]; format: functional, cell-based

Sequence of Methionine synthase (Q99707 whole entry): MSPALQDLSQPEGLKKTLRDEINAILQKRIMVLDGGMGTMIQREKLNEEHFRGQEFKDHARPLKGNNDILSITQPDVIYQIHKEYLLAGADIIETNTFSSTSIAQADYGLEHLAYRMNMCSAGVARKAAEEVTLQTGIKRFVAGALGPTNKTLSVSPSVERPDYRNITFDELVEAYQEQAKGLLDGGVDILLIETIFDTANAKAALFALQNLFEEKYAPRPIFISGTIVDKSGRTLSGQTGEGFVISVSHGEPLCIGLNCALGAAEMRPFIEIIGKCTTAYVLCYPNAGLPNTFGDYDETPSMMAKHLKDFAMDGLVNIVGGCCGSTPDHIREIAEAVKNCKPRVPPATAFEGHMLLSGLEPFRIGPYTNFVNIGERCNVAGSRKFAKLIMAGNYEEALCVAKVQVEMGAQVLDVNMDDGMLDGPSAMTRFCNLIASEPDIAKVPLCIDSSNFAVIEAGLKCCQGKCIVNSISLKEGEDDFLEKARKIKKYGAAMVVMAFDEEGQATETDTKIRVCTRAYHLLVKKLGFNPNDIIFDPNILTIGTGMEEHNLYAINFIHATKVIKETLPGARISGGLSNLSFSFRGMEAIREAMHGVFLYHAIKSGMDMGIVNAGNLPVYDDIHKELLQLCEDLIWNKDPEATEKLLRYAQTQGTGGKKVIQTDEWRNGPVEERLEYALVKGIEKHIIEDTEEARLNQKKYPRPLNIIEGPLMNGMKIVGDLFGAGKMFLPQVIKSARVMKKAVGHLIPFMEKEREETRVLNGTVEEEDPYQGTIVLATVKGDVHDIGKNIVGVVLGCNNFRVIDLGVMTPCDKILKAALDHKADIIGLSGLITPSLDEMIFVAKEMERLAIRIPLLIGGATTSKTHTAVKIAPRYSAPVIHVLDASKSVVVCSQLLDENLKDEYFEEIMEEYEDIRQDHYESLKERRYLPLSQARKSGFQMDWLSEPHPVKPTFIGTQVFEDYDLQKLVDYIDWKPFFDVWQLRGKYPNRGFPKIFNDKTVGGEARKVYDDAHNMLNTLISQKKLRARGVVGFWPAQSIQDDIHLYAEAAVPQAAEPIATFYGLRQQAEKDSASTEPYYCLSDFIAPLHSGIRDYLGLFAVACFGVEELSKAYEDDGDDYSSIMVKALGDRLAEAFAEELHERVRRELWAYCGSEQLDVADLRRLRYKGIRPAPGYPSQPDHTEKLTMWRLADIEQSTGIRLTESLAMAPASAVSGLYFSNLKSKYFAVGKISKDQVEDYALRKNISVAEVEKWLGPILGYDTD

O=C1c2ccccc2CN1C1CCN(CCC(c2ccccc2)c2ccccc2)CC1
IC50 (Methionine synthase): 2.2 nM
EC50 (HepG2): 2.2 nM

O=C(c1c[nH]c2ccccc2c1=O)N(Cc1ccccc1)Cc1ccccc1
EC50 [1]: 2.1 nM

COc1cc(-c2ncn(/C=C\C(=O)OC(C)C)n2)cc(C(F)(F)F)c1
IC50 (Exportin-1 [2]): 16 nM
IC50 (Exportin-1 [3]): 112 nM

CC1(C)CCC(c2ccc(Cl)cc2)=C(CN2CCN(c3ccc(C(=O)NS(=O)(=O)c4ccc(NCC5CCOCC5)c([N+](=O)[O-])c4)c(Oc4cnc5[nH]ccc5c4)c3)CC2)C1
EC50 (RS4-11): 8 nM

Cc1[nH]c(/C=C2\C(=O)Nc3ccc(S(=O)(=O)C(C)c4c(Cl)cccc4Cl)cc32)c(C)c1C(=O)N1CCC[C@@H]1CN1CCCC1 (some centres undefined)
IC50 [4]: 9 nM

CC(C)(C)Nc1nc(Nc2ccccc2)nc(-c2ccccc2)n1
IC50 (HCT-116): 530 nM
IC50 [5]: 100 nM

O=C(Cc1ccncc1)N1CCN([C@H]2c3ccc(Cl)cc3CCc3cccnc32)CC1
IC50 (GTPase KRas [6]): 5.2 nM
IC50 [7]: 490 nM
IC50 (GTPase HRas): 1.9 nM

COc1nc2ccc(Br)cc2cc1[C@@H](c1ccccc1)[C@@](O)(CCN(C)C)c1cccc2ccccc12 [BEDAQUILINE]
MIC [8]: 0.03 µg/mL (≈ 0.054 µM)
MIC [9]: 0.03 µg/mL (≈ 0.054 µM)

CC1=NN(c2ccccc2)C(=O)C1 [EDARAVONE]
IC50 (Brain): 18200 nM

NNC(=O)c1ccncc1 [ISONIAZID]
MIC [8]: 0.12 µg/mL (≈ 0.875 µM)
MIC [9]: 0.12 µg/mL (≈ 0.875 µM)

CC(C)(C)c1cc(C(C)(C)C)c(NC(=O)c2c[nH]c3ccccc3c2=O)cc1O [IVACAFTOR]
EC50 [1]: 25 nM
EC50 [10]: 236 nM

COc1cccc(N2CCN(C3=Nc4c(F)cccc4[C@H](CC(=O)O)N3c3cc(C(F)(F)F)ccc3OC)CC2)c1 [LETERMOVIR]
EC50 (Human betaherpesvirus 5): 4.5 nM
EC90 (Human betaherpesvirus 5): 6.1 nM

O=C(NC1CCN(CCCCC2(C(=O)NCC(F)(F)F)c3ccccc3-c3ccccc32)CC1)c1ccccc1-c1ccc(C(F)(F)F)cc1 [LOMITAPIDE]
IC50 (Methionine synthase): 0.5 nM
EC50 (HepG2): 0.8 nM

NC(=O)N1CCC(CC(=O)N2CCC([C@H]3c4ncc(Br)cc4CCc4cc(Cl)cc(Br)c43)CC2)CC1 [LONAFARNIB]
IC50 (GTPase KRas [11]): 40 nM

O=C(c1cc(Cc2n[nH]c(=O)c3ccccc23)ccc1F)N1CCN(C(=O)C2CC2)CC1 [OLAPARIB]
IC50 (SW-620): 6 nM

COC(=O)C[C@](O)(CCCC(C)(C)O)C(=O)O[C@@H]1C(OC)=C[C@]23CCCN2CCc2cc4c(cc2[C@H]13)OCO4 [OMACETAXINE MEPESUCCINATE]
IC50 (K562): 21 nM

N#Cc1ccc([C@H]2CCc3cncn32)c(F)c1 [OSILODROSTAT]
IC50 (cells): 35 nM

CO[C@H]1/C=C/O[C@@]2(C)Oc3c(C)c(O)c4c(O)c(c(/C=N/N5CCN(C)CC5)c(O)c4c3C2=O)NC(=O)/C(C)=C\C=C\[C@H](C)[C@H](O)[C@@H](C)[C@@H](O)[C@@H](C)[C@H](OC(C)=O)[C@@H]1C [RIFAMPIN]
MIC [8]: 0.5 µg/mL (≈ 0.608 µM)
MIC [9]: 0.5 µg/mL (≈ 0.608 µM)

COC(=O)N(C)c1c(N)nc(-c2nn(Cc3ccccc3F)c3ncccc23)nc1N [RIOCIGUAT]
MEC [12]: 0.03 µM
IC50 (Aorta): 120 nM

Cn1cnc2c(F)c(Nc3ccc(Br)cc3Cl)c(C(=O)NOCCO)cc21 [SELUMETINIB]
IC50 (Malme-3M): 59 nM

CC(=O)N[C@@H](CCCNC(=N)N)C(=O)N[C@H]1CSSC[C@@H](C(N)=O)NC(=O)[C@H](Cc2c[nH]c3ccccc23)NC(=O)[C@H](CCCNC(=N)N)NC(=O)[C@@H](Cc2ccccc2)NC(=O)[C@H](Cc2c[nH]cn2)NC(=O)[C@@H](C)NC1=O [SETMELANOTIDE]
EC50 (Melanocortin receptor 4): 0.28 nM

CCOC(=O)[C@@H](N)Cc1ccc(-c2cc(O[C@H](c3ccc(Cl)cc3-n3ccc(C)n3)C(F)(F)F)nc(N)n2)cc1 [TELOTRISTAT ETIPRATE]
IC50 (RBL-2H3): 400 nM
